We go through 1 substance from patent publication US20100075894A1, “REDUCING ER STRESS IN THE TREATMENT OF OBESITY AND DIABETES” (HARVARD UNIVERSITY, priority 2004, published 2010).

The assay relates to mouse embryonic fibroblasts (MEF). Briefly: tunicamycin ER stress response in MEFs (XBP-1 models). In kind it is cell-based. As to the method:
ER stress responses in XBP-1s overexpressing cells, XBP-1^−/− cells and their controls. (A) Induction of XBP-1s expression upon removal of doxycycline in mouse embryonic fibroblasts (MEF). (B) Southern blot analysis of XBP-1^−/− MEF cells and their WT controls for the wild type (9.4 kb) and targeted (6.5 kb) alleles. (C) PERK phosphorylation (p-PERK) and JNK activity in the XBP-1s overexpressing cells and their control cells (−Dox and +Dox, respectively) upon tunicamycin treatment (Tun, 2 μg/ml). (D) PERK phosphorylation and JNK activity upon low dose tunicamycin treatment (Tun, 0.5 μg/ml) in XBP-1^−/− MEF cells and their WT controls. (E) IRS-1 Ser307 phosphorylation upon tunicamycin treatment (Tun, 2 μg/ml) in the XBP-1s overexpressing and the control cells (−Dox and +Dox, respectively), detected using immunoprecipitation (IP) of IRS-1 followed by immunoblotting (IB) with an IRS-1 phosphoserine 307-specific antibody. […] The ratio of IRS-1 tyrosine phosphorylation to total IRS-1 level was summarized from independent experiments and was presented in the graph. (G) IRS-1 Ser307 phosphorylation upon tunicamycin treatment (Tun, 0.5 μg/ml) in XBP-1^−/− cells and WT controls was detected as described in […]. […] (H) Insulin-stimulated tyrosine phosphorylation of IRS-1 in XBP-1^−/− and WT control cells with or without tunicamycin treatment (Tun, 0.5 μg/ml). The ratio of IRS-1 tyrosine phosphorylation to total IRS-1 level was summarized from independent experiments and presented in the graph. All graphs show mean±SEM from at least 2 independent experiments and statistically significance from the controls is indicated by * with p<0.005.
The transcription factor XBP-1 is a bZIP protein. The spliced or processed form of XBP-1 (XBP-1s) is a key factor in the transcriptional regulation of molecular chaperones and enhances the compensatory UPR (Calfon et al., Nature 415, 92 (2002); Shen et al., Cell 107:893 (2001); Yoshida et al., Cell 107:881 (2001); Lee et al., Mol. Cell Biol. 23:7448 (2003); each of which is incorporated herein by reference). We therefore reasoned that modulation of XBP-1s levels in cells should alter insulin action via its potential impact on the magnitude of the ER stress responses. To test this possibility, we established XBP-1 gain- and loss-of-function cellular models. First, we established an inducible gene expression system where exogenous XBP-1s is expressed only in the absence of tetracycline/doxycycline (FIG. 13A). In parallel, we also studied MEFs derived from XBP-1^−/− mouse embryos (Lee et al., Mol. Cell Biol. 23, 7448 (2003); A. M. Reimold et al., Genes Dev. 14, 152 (2000); Reimold et al., Nature 412, 300 (2001); each of which is incorporated herein by reference) (FIG. 13B). […] Upon induction of XBP-1s expression, there was a dramatic reduction in both PERK phosphorylation and JNK activation following tunicamycin treatment (FIG. 13C). […] Thus alterations in the levels of cellular XBP-1s protein result in alterations in the ER stress response.
Cells: Rat Fao liver cells were cultured with RPMI 1640 (Gibco, Grand Island, N.Y.) containing 10% fetal bovine serum (FBS). At 70-80% confluency, cells were serum depleted for 12 hours before starting the experiments. Reagents including tunicamycin, thapsigargin, and JNK inhibitors were gently added to the culture dishes in the incubator to prevent any environmental stress. JNK inhibitors were added 1 hour before tunicamycin/thapsigargin treatment. The XBP-1^−/− mouse embryonic fibroblasts (MEF) (A. H. Lee, N. N. Iwakoshi, L. H. Glimcher, Mol. Cell. Biol. 23:7448 (2003); incorporated herein by reference), IRE-1α^−/− MEF cells (kindly provided by Dr. David Ron, New York University School of Medicine), and their wild type controls were cultured in Dulbecco's Modified Eagle Medium (DMEM) (Gibco, Grand Island, N.Y.) containing 10% FBS. A similar protocol was followed for experiments in MEF cells, except that the cells were serum depleted for only 6 hours. […]

The mark [1] stands for this setting: fibroblasts without exogenous XBP-1s expression, 2 μg/ml.

As to tunicamycin, the ER stress entry (WT cells, low dose 0.5 μg/ml) was “failed to stimulate significant ER stress”. Also, the ER stress response result (XBP-1−/− MEFs, low dose 0.5 μg/ml) is reported as “strong ER stress response”. For the same substance, under setting [1], the PERK phosphorylation entry is given as “strong PERK phosphorylation”; the “PERK phosphorylation, peak” value was in the range of 3 to 4 h; the “PERK phosphorylation, start” value came to 30 min; the “activation of JNK” value was “rapid and robust activation”.
